Data published in US5399691A, “Substituted benzoylurea derivatives or their salts” (Ishihara Sangyo Kaisha Ltd., priority 1991, dated 1995).
≈ marks a conversion by molar mass, not a printed value. Where a name gives a salt, the structure may show the parent alone. Read-outs that look alike come from different tables or passages of the source.

Legend:
[1] = test system: P-388 leukemia; assay: Antitumor activity against P-388 leukemia, increase life span (Test Example 1); format: in vivo, BDF1 mouse (murine); conditions: days 1, 5 and 9
Excerpt: The compounds of the present invention are effective against experimental murine tumors such as P-388 leukemia, L-1210 leukemia, B-16 melanoma, M-5076 sarcoma, Colon 38, Colon 26 and Lewis lung carcinoma. On the other hand, certain in vivo test systems and protocols have been developed by National Cancer Institute for testing compounds to determine the effectiveness of test compounds as antineoplastic agents. These have been reported in "Cancer Chemotherapy Reports", Part III, Vol. 3, No. 2 (1972) written by Deran, Greenberg, MacDonald, Schumacher and Abott. P-388 leukemia is the most standard experimental murine tumor, and it is known that many of drugs effective against human tumor are also effective against this leukemia. Generally, the effectiveness of a drug for these experimental murine tumors is evaluated by the extended median survival time of a test mouse group to which a test drug is administered on the basis of the median survival time of a control mouse group to which no drug is administered. If the extended median survival time is at least 25-30% longer, the administered drug is determined to be effective.
1×10^6 of P-388 leukemia cells per mouse were intraperitoneally transplanted into BDF1 mouse. Each formulation was intraperitoneally or intravenously administered on the 1st, 5th and 9th days after the transplantation.
The increase life span of each group was determined by comparing the median survival time (days) of a test group to which a test drug is administered and the median survival time (days) of a control group to which physiological saline was administered at the same part as in the case of the test group. Among the tested drug formulations, the compounds of the present invention were formulated in accordance with the below-mentioned Formulation Example 1, and the comparative compounds as shown in Table 8 were formulated in accordance with the below-mentioned Formulation Example 2.
(Note) * Increase life span is calculated by the following equation:
Increase life span % (ILS)=(a/b×100)-100 a: Median survival days of test group of drug administration b: Median survival days of control group of physiological saline administration 0.125 part by weight of the above mentioned Compound No. 1 was dissolved in 5 parts by weight of N,N-dimethylacetamide and 5 parts by weight of polyoxyethylene sorbitan monooleate, and 90 parts by weight of physiological saline was added thereto to form a solution formulation in an agate mortar.
0.125 part by weight of Comparative Compound No. 1 was dissolved in 5 parts by weight of N,N-dimethylacetamide and 5 parts by weight of polyoxyethylene sorbitan monooleate, and 90 parts by weight of physiological saline was added thereto to form a suspension formulation in an agate mortar.

[2] = Acute toxicity; format: in vivo; conditions: mouse, in vivo; BDF1 mice, intravenous, Formulation Example 1; read-out: acute toxicity value (LD 50)
Experimental: (§1) None of BDF1 mice were dead by intravenously administering each formulation of Compound Nos. 1 to 9, 20, 49 and 53 of the present invention prepared in accordance with Formulation Example 1 in an amount of 25 mg/kg mouse (on the basis of compound).
(§2) 0.125 part by weight of the above mentioned Compound No. 1 was dissolved in 5 parts by weight of N,N-dimethylacetamide and 5 parts by weight of polyoxyethylene sorbitan monooleate, and 90 parts by weight of physiological saline was added thereto to form a solution formulation in an agate mortar.

[3] = Solubility in water-soluble solvent by HPLC (Test Example 2); format: physicochemical
Experimental: About 2 mg of each of the compounds of the present invention shown in the following Table 7 was accurately weighed, and was completely dissolved in 2 ml of N,N-dimethylacetamide. The content was then transferred into a 10 ml-measuring flask, and its volume was made constant with acetonitrile. 3 ml of the resultant solution was placed in a 50 ml-measuring flask, and its volume was adjusted constant with acetonitrile to prepare a standard solution. Next, about 2 mg of each of the compounds of the present invention was weighed, and was placed in an agate mortar. Thereafter, 1.5 ml of a test liquid (water-soluble solvent) was added thereto, and the content was mixed for 5 minutes. A suspension thus obtained, was transferred into a 1.5 ml-microtube, and was centrifuged at 15,000 r.p.m. for 10 minutes. The supernatant fluid was placed in a 1 ml-microtube, and was centrifuged again under the same conditions. 0.1 ml of the supernatant fluid thus obtained was diluted with 0.9 ml of acetonitrile to prepare a measuring liquid. The above standard solution and the measuring liquid were analyzed by high pressure liquid chromatography (HPLC), and their solubilities were measured by absolute calibration curve method.
Column: Nucleosil 5 C18, diameter=4.6 mm, length=250 mm
Mobile phase: acetonitrile/water/acetic acid=60/40/0.1
Detection: UV 265 nm, Column temperature: 40° C.,
Sensitivity: 0.005 AUFS or 0.16 AUFS,

[4] = test system: BDF1 mice; assay: Acute toxicity; format: in vivo; conditions: intravenous, 25 mg/kg mouse, Formulation Example 1
Experimental: as §1, §2

[5] = Mus musculus, P388, intravenous
[6] = Mus musculus, P388, intravenous, 12.5 mg/kg
[7] = Mus musculus, P388, intravenous, 25 mg/kg
[8] = 10% peg 400 aqueous, organic solvent or mixture, 10% polyethylene glycol #400 aqueous solution, read-out: Solubility, test solution C
[9] = distilled water, water, read-out: Solubility, test solution A
[10] = physiological saline, read-out: Solubility, test solution B
[11] = Mus musculus, P388, ip, intraperitoneal
[12] = Mus musculus, P388, ip, intraperitoneal, 12.5 mg/kg
[13] = Mus musculus, P388, ip, intraperitoneal, 25 mg/kg

Compound `NCC(=O)Nc1ccccc1C(=O)NC(=O)Nc1ccc(Oc2ncc(Br)cn2)c(Cl)c1` [Compound No. 1, N-[4-(5-bromo-2-pyrimidinyloxy)-3-chlorophenyl]-N'-(2-glycylamino)benzoylurea hydrochloride] has an ILS at 6.25 mg/kg [1, 5] of 12%, an ILS at 12.5 mg/kg [1, 6] of 79% and an ILS at 25 mg/kg [1, 7] of 219%. The LD50 [2] was ≥ 25 mg/kg, the solubility [3, 8] was 2100 µg/mL and the solubility [3, 9] was 1200 µg/mL. For the same compound, the solubility [3, 10] was 50 µg/mL.
For `CN(C)CC(=O)Nc1ccccc1C(=O)NC(=O)Nc1ccc(Oc2ncc(Br)cn2)c(Cl)c1` [Compound No. 2, N-[4-(5-bromo-2-pyrimidinyloxy)-3-chlorophenyl]-N'-[2-(N,N-dimethylglycyl)amino]benzoylurea hydrochloride], the ILS at 6.25 mg/kg [1, 5] was 24%, the ILS at 12.5 mg/kg [1, 6] was 51% and the ILS at 25 mg/kg [1, 7] was 143%. For the same compound, the LD50 [2] was ≥ 25 mg/kg, the solubility [3, 8] was > 4000 µg/mL and the solubility [3, 9] was 2500 µg/mL. It also gave a solubility [3, 10] of 550 µg/mL.
For `C[C@H](N)C(=O)Nc1ccccc1C(=O)NC(=O)Nc1ccc(Oc2ncc(Br)cn2)c(Cl)c1` [Compound No. 3], the ILS at 6.25 mg/kg [1, 5] was 10%, the ILS at 12.5 mg/kg [1, 6] was 70% and the ILS at 25 mg/kg [1, 7] was 134%. For the same compound, the LD50 [2] was ≥ 25 mg/kg, the solubility [3, 8] was 3700 µg/mL (≈ 6.93 mM) and the solubility [3, 9] was 2800 µg/mL (≈ 5.25 mM). It also gave a solubility [3, 10] of 320 µg/mL (≈ 0.6 mM).
With `C[C@@H](N)C(=O)Nc1ccccc1C(=O)NC(=O)Nc1ccc(Oc2ncc(Br)cn2)c(Cl)c1` [Compound No. 4] the ILS at 12.5 mg/kg [1, 6] was 19%, the ILS at 25 mg/kg [1, 7] was 95% and the LD50 [2] was ≥ 25 mg/kg. It also gave a solubility [3, 8] of 2700 µg/mL (≈ 5.06 mM), a solubility [3, 9] of 2000 µg/mL (≈ 3.75 mM) and a solubility [3, 10] of 140 µg/mL (≈ 0.262 mM).
For `CSCC[C@H](N)C(=O)Nc1ccccc1C(=O)NC(=O)Nc1ccc(Oc2ncc(Br)cn2)c(Cl)c1` [Compound No. 5], the ILS at 12.5 mg/kg [1, 6] was 3%, the ILS at 25 mg/kg [1, 7] was 152% and the LD50 [2] was ≥ 25 mg/kg. For the same compound, the solubility [3, 8] was 2000 µg/mL (≈ 3.37 mM), the solubility [3, 9] was 1200 µg/mL (≈ 2.02 mM) and the solubility [3, 10] was 30 µg/mL (≈ 0.0505 mM).
Work on `Cc1cc(NC(=O)NC(=O)c2ccccc2NC(=O)CN)ccc1Oc1ncc(Br)cn1` [Compound No. 7, N-[4-(5-bromo-2-pyrimidinyloxy)-3-methylphenyl]-N'-(2-glycylamino)benzoylurea] yielded an ILS at 6.25 mg/kg [1, 5] of 50%, an ILS at 12.5 mg/kg [1, 6] of 105% and an ILS at 25 mg/kg [1, 7] of 143%. The LD50 [2] was ≥ 25 mg/kg, the solubility [3, 8] was 3900 µg/mL (≈ 7.81 mM) and the solubility [3, 9] was > 2300 µg/mL. It also gave a solubility [3, 10] of 380 µg/mL (≈ 0.761 mM).
With `Nc1ccccc1C(=O)NC(=O)Nc1ccc(Oc2ncc(Br)cn2)c(Cl)c1` [compound 1, reference compound] the ILS at 6.25 mg/kg [1, 11] was 50%, the ILS at 12.5 mg/kg [1, 12] was 107% and the “Increase life span (ILS %)” value ([1]; intraperitoneal, 25 mg/kg) was “Tox”. The solubility [3, 8] was < 0.05 µg/mL, the solubility [3, 9] was < 0.05 µg/mL and the solubility [3, 10] was 0.06 µg/mL (≈ 0.00013 mM).
For `Cc1cc(NC(=O)NC(=O)c2ccccc2N)ccc1Oc1ncc(Cl)cn1` [compound 2, reference compound], the ILS at 6.25 mg/kg [1, 11] was 34%, the ILS at 12.5 mg/kg [1, 12] was 83% and the ILS at 25 mg/kg [1, 13] was 148%. It also gave a solubility [3, 9] of 0.8 µg/mL (≈ 0.00201 mM).
For `CCc1cc(NC(=O)NC(=O)c2ccccc2N)ccc1Oc1ncc(Br)cn1` [compound 3, reference compound], the ILS at 6.25 mg/kg [1, 11] was 26%, the ILS at 12.5 mg/kg [1, 12] was 26% and the ILS at 25 mg/kg [1, 13] was 99%. For the same compound, the solubility [3, 9] was < 0.1 µg/mL.
In the case of `Nc1ccccc1C(=O)NC(=O)Nc1ccc(Oc2ncc(Cl)cn2)c(C(F)(F)F)c1` [compound 4, reference compound], the ILS at 6.25 mg/kg [1, 11] is reported as 71%, the “Increase life span (ILS %)” value ([1]; intraperitoneal, 12.5 mg/kg) is reported as “Tox” and the “Increase life span (ILS %)” value ([1]; intraperitoneal, 25 mg/kg) is reported as “Tox”. For the same compound, the solubility [3, 9] was 0.4 µg/mL (≈ 0.000885 mM).
In the case of `NCC(=O)Nc1ccccc1C(=O)NC(=O)Nc1ccc(Oc2ncc(Cl)cn2)c(C(F)(F)F)c1` [compound 6], the ILS at 6.25 mg/kg [1, 5] is reported as 60%, the ILS at 12.5 mg/kg [1, 6] is reported as 138% and the LD50 [2] is reported as ≥ 25 mg/kg. The solubility [3, 8] was 1900 µg/mL (≈ 3.73 mM), the solubility [3, 9] was 1400 µg/mL (≈ 2.75 mM) and the solubility [3, 10] was 70 µg/mL (≈ 0.138 mM).
For `NCC(=O)NCC(=O)Nc1ccccc1C(=O)NC(=O)Nc1ccc(Oc2ncc(Br)cn2)c(Cl)c1` [compound 8], the ILS at 12.5 mg/kg [1, 6] was 90%, the ILS at 25 mg/kg [1, 7] was 243% and the LD50 [2] was ≥ 25 mg/kg. For the same compound, the solubility [3, 8] was 2100 µg/mL (≈ 3.64 mM), the solubility [3, 9] was 1800 µg/mL (≈ 3.12 mM) and the solubility [3, 10] was 70 µg/mL (≈ 0.121 mM).
With `NCC(=O)Nc1ccccc1C(=O)NC(=O)Nc1ccc(Oc2ncc(Cl)cn2)c(Cl)c1` [compound 9] the ILS at 6.25 mg/kg [1, 5] was 19%, the ILS at 12.5 mg/kg [1, 6] was 86% and the ILS at 25 mg/kg [1, 7] was 152%. The LD50 [2] was ≥ 25 mg/kg, the solubility [3, 8] was 1500 µg/mL (≈ 3.16 mM) and the solubility [3, 9] was 1600 µg/mL (≈ 3.37 mM). For the same compound, the solubility [3, 10] was 160 µg/mL (≈ 0.337 mM).
For `Cc1cc(NC(=O)NC(=O)c2ccccc2NC(=O)CN(C)C)ccc1Oc1ncc(Br)cn1` [compound 20, N-[4-(5-bromo-2-pyrimidinyloxy)-3-methylphenyl]-N'-[2-(N,N-dimethylglycyl)amino]benzoylurea], the ILS at 12.5 mg/kg [1, 6] was 36%, the ILS at 25 mg/kg [1, 7] was 155% and the BDF1 mice dead [4] was “None”. For the same compound, the LD50 [2] was ≥ 25 mg/kg, the solubility [3, 8] was 20000 µg/mL (≈ 37.9 mM) and the solubility [3, 9] was 19000 µg/mL (≈ 36 mM). The solubility [3, 10] was 3000 µg/mL (≈ 5.69 mM).
`Cc1cc(NC(=O)NC(=O)c2ccccc2NC(=O)[C@H](C)N)ccc1Oc1ncc(Br)cn1` [compound 49] gave an ILS at 6.25 mg/kg [1, 5] of 14%, an ILS at 12.5 mg/kg [1, 6] of 76% and an ILS at 25 mg/kg [1, 7] of 190%. The BDF1 mice dead [4] was “None”, the LD50 [2] was ≥ 25 mg/kg and the solubility [3, 8] was 9800 µg/mL (≈ 19.1 mM). The solubility [3, 9] was 7600 µg/mL (≈ 14.8 mM) and the solubility [3, 10] was 1800 µg/mL (≈ 3.51 mM).
With `CNCC(=O)Nc1ccccc1C(=O)NC(=O)Nc1ccc(Oc2ncc(Br)cn2)c(C)c1` [compound 53, N-[4-(5-bromo-2-pyrimidinyloxy)-3-methylphenyl]-N'-(2-sarcosylamino)benzoylurea] the ILS at 10 mg/kg ([1]; Mus musculus, P388, intravenous, 10 mg/kg (footnote d)) was > 30%, the ILS at 20 mg/kg ([1]; Mus musculus, P388, intravenous, 20 mg/kg (footnote c)) was > 50% and the BDF1 mice dead [4] was “None”. For the same compound, the LD50 [2] was ≥ 25 mg/kg, the solubility [3, 9] was 5000 µg/mL (≈ 9.74 mM) and the solubility [3, 10] was 120 µg/mL (≈ 0.234 mM).
